Assay results from patent publication US6878736B1, “Histamine H3 receptor ligands” (James Black Foundation Limited, priority 1998, dated 2005).
Where a name gives a salt, the structure may show the parent alone.

Tests used:
Histamine H3 receptor [1] = target: T1, Histamine H3 receptor (Cavia porcellus, UniProt Q9JI35); experiment: Histamine H3 radioligand binding assay, guinea pig cortex ([3H]-R-α-methylhistamine); conditions: guinea pig cortex membranes, competition with 1 nM [3H]-R-α-methylhistamine; for Ki: read-out: pKi (Guinea pig cortex) (converted)
T1 sequence (Q9JI35 whole entry): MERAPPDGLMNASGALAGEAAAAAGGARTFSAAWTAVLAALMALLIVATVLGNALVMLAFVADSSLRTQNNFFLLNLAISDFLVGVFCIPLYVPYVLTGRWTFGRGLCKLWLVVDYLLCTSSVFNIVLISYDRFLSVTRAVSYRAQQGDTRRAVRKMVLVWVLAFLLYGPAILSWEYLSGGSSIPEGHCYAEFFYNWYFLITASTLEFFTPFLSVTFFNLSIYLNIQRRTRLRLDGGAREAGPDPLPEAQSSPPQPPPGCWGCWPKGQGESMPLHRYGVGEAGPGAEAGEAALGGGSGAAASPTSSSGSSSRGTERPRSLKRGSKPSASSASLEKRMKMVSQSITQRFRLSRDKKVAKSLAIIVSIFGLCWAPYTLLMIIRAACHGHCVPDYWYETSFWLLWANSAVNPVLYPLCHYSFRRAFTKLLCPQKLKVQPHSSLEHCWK
Protocol: The compounds of the invention were also tested in a guinea pig cortex binding assay, as follows:
Histamine H3 Radioligand Binding Assay—Guinea Pig Cortex
Male Dunkin Hartley guinea pigs (200-300 g) were used. The whole brain was removed and immediately placed in ice-cold 20 mM Hepes-NaOH buffer (pH7.4 at 21±3° C.). The cortex was dissected, weighed and homogenised in ice-cold 20 mM Hepes-NaOH buffer (pH7.4 at 21±3° C.) (50 ml/guinea-pig cortex) using a polytron (Kinematica AG; PT-DA 3020/2TS, 3×3 s). The homogenate was centrifuged at 100×g for 5 min and the supernatants pooled and stored at 4° C. The pellets were rehomogenised in fresh ice-cold buffer (80 ml) and recentrifuged (100×g for 5 min). The supernatants were pooled and pellets rehomogenised and recentrifuged (100×g for 5 min). All supernatants were pooled and centrifuged at 39,800×g for 12 min at 4° C. The final pellet was resuspended in 20 mM Hepes-NaOH buffer (pH7.4 at 21±3° C.) to a tissue concentration of 7.5 mg.ml^−1, using a teflon-in-glass homogeniser.
Guinea pig cortex membranes (400 μl) were incubated for 165 min at 21±3° C. in a final volume of 500 μl with 20 mM Hepes-NaOH buffer containing [^3H]-R-α-methylhistamine (50 μl; 1 nM) and competing compound. Total and non-specific binding of [^3H]-R-α-methylhistamine were defined using 50 μl of buffer and 50 μl of 10 μM thioperamide, respectively. The assay was terminated by rapid filtration through Whatman GF/B filters, presoaked (2 hr) in 0.1% polyethyleneimine, using a Brandell Cell Harvester. The filters were washed (3×3 ml) with ice-cold 50 mM Tris-HCl (pH6.9 at 21±3° C.), transferred into scintillation vials, 5 ml liquid scintillation cocktail was added and after 4 hours the bound radioactivity was determined by counting (4 min) in a Beckman liquid scintillation counter.
Data are analysed using GraphPad prism and the general equation for a competition curve with variable Hill slope (nH). [formula] where • X is the log concentration of competing compound, • Y is the binding obtained at each concentration of X, • pIC50 is the concentration of the competitor required to compete for half of the specific binding.
The IC50 is converted to the K1 using the Cheng Prusoff equation, K1=IC50/(1+(L/KD)) where • IC50 is the concentration of competitor required to compete for half the specific binding, • L is the radioligand concentration used, • KD is the equilibrium dissociation constant for the radioligand determined by saturation experiments.

Histamine H3 receptor [2] = target: T1, Histamine H3 receptor; experiment: Histamine H3 functional assay, guinea pig ileum (ileal longitudinal muscle, myenteric plexus); set-up: species or system tissue; conditions: antagonist affinity from rightward shift of R-(α)-methylhistamine E/[A] curves (Schild), typical variance ±0.15 log units; for Kb: read-out: pKb (Guinea pig ileum) (converted)
Protocol: • 1. J. Med. Chem 1994, 314. • 2. WO 97/29092 Histamine H3 Functional Assay—Guinea Pig Ileum
The biological activity of the compounds of the examples was measured using the ileal longitudinal muscle, myenteric plexus assay described by Paton and Aboo Zar (J. Physiol. 1968, 194, 13-33). Male Dunkin-Hartley guinea pigs (250-300 g) were employed. Briefly, a 50 cm portion of ileum proximal to the caecum was removed, after discarding the terminal 20 cm. Ileal segments (3 cm) were cleaned by passing Krebs-Henseleit buffer containing 3 μM mepyramine gently through the ileum using a Pasteur pipette (size: 13.8 cm length, 0.65 cm diameter). To avoid unnecessary damage to the tissue, Krebs-Henseleit buffer was passed through the ileal segment, while it was lying horizontally on a petri dish. Therefore, the ileum was not over-distended and the buffer flowed through with ease. Each segment was then passed over a Pasteur pipette and the longitudinal muscle layer and adhering myenteric plexus was teased away using moist cotton wool, by stroking tangentially away from the mesenteric attachment. The tissues were suspended in 20 ml organ baths containing Krebs-Henseleit buffer at 37±1° C. and gassed with […]. The tissues were ligated to two parallel stainless steel wires, situated between two platinum electrodes (0.76 cm length, 0.06 cm diameter). All measurements were recorded isometrically (Grass FTO3 transducer). Following an initial loading tension of 1 g, the tissues were stimulated with electrical pulses at a frequency of 0.1 Hz and a pulse duration of 0.5 msec, as described by Kosterlitz & Watt (Br. J. Pharmacol. 1968, 266276). Initially, the tissues were stimulated at supramaximal (1.3 fold times maximal) voltage for a period of 30 min and then the tissues were washed and re-stimulated. A “sighter dose” of the selective histamine H3-receptor agonist, R-(α)-methylhistamine (0.3 μM) (Arrang et al. Nature, 1987, 117-123), was administered. Upon generation of response, the “sighter dose” was removed from the tissues by “washout” (6 washes over 60 min) and during this period the electrical stimulation was switched off. The tissues were then re-stimulated and allowed to stabilise prior to the addition of drug treatments, which were allocated on a randomised block basis to the organ baths. Following the incubation period, a single cumulative E/[A] curve was obtained. The experimental E/[A] curve data was expressed as the percentage inhibition of the peak height of electrically-stimulated contraction. Antagonist affinity values were calculated from the degree of rightward shift of the R-(α)-methylhistamine E/[A] curves using Schild's methods (Arunlakshana & Schild Br. J. Pharmacol. 1959, 48-58). Typical variance in this assay is ±0.15 log units.

SMILES: N=C(N)NCCCN1CCCC1 [Example 1, N-(3-Pyrrolidin-1-yl-propyl)-guanidine bis-hydrochloride]
- Ki (Histamine H3 receptor [1]): 63.1 nM
- Kb (Histamine H3 receptor [2]): 3980 nM

SMILES: N=C(NCCCN1CCCC1)NCc1ccc(Cl)cc1 [Example 2, N-(4-Chlorobenzyl)-N′-(3-pyrrolidin-1-yl-propyl)-guanidine bis-hydrochloride]
- Ki (Histamine H3 receptor [1]): 50.1 nM
- Kb (Histamine H3 receptor [2]): 398 nM

SMILES: COc1ccc(C/N=C(\N)NCCCN2CCCC2)cc1 [Example 3, N-(4-Methoxybenzyl)-N′-(3-pyrrolidin-1-yl-propyl)-guanidine bis-hydrochloride]
- Ki (Histamine H3 receptor [1]): 79.4 nM
- Kb (Histamine H3 receptor [2]): 794 nM

SMILES: Cl.Cl.N=C(NCCCN1CCCC1)NCc1ccc2ccccc2c1 [Example 4, N-Naphthalen-2-yl-methyl-N′-(3-pyrrolidin-1-yl-propyl)-guanidine bis-hydrochloride]
- pKi (Guinea pig cortex) (Histamine H3 receptor [1]): 7.1
- pKb (Guinea pig ileum) (Histamine H3 receptor [2]): 6.5

SMILES: N=C(NCCCN1CCCC1)NCc1ccc(C(F)(F)F)cc1 [Example 5, N-(4-(Trifluoromethyl)benzyl)-N′-(3-pyrrolidin-1-yl-propyl)-guanidine bis-hydrochloride]
- Kb (Histamine H3 receptor [2]): 794 nM

SMILES: N=C(NCCCN1CCCC1)NCc1ccc(I)cc1 [Example 6, N-(4-Iodobenzyl)-N′-(3-pyrrolidin-1-yl-propyl)-guanidine bis-hydrochloride]
- Ki (Histamine H3 receptor [1]): 50.1 nM
- Kb (Histamine H3 receptor [2]): 398 nM

SMILES: COc1ccc(CNC(=N)NCCCN2CCCC2)cc1Br [Example 7, N-(3-Bromo-4-methoxy-benzyl)-N′-(3-pyrrolidin-1-yl-propyl)-guanidine bis-hydrochloride]
- Ki (Histamine H3 receptor [1]): 39.8 nM
- Kb (Histamine H3 receptor [2]): 398 nM

SMILES: N=C(NCCCN1CCCC1)NCc1ccccc1 [Example 8, N-Benzyl-N′-(3-pyrrolidin-1-yl-propyl)-guanidine bis-hydrochloride]
- Kb (Histamine H3 receptor [2]): 631 nM

SMILES: N=C(NCCCN1CCCC1)NCc1ccc(Br)cc1 [Example 9, N-(4-Bromobenzyl)-N′-(3-pyrrolidin-1-yl-propyl)-guanidine bis-hydrochloride]
- Ki (Histamine H3 receptor [1]): 5.01 nM
- Kb (Histamine H3 receptor [2]): 316 nM

SMILES: N=C(NCCCN1CCCC1)NCc1cccc(Br)c1 [Example 10, N-(3-Bromobenzyl)-N′-(3-pyrrolidin-1-yl-propyl)-guanidine bis-hydrochloride]
- Ki (Histamine H3 receptor [1]): 25.1 nM
- Kb (Histamine H3 receptor [2]): 316 nM

SMILES: N=C(NCCCN1CCCC1)NCc1ccccc1Br [Example 11, N-(2-Bromobenzyl)-N′-(3-pyrrolidin-1-yl-propyl)-guanidine bis-hydrochloride]
- Ki (Histamine H3 receptor [1]): 39.8 nM
- Kb (Histamine H3 receptor [2]): 501 nM

SMILES: Cl.Cl.N=C(NCCCN1CCCC1)NCc1ccc(-c2ccccc2)cc1 [Example 12, N-Biphenyl-4-yl-methyl-N′-(3-pyrrolidin-1-yl-propyl)-guanidine bis-hydrochloride]
- pKi (Guinea pig cortex) (Histamine H3 receptor [1]): 6.2
- pKb (Guinea pig ileum) (Histamine H3 receptor [2]): 6.3

SMILES: N=C(NCCCN1CCCC1)NCc1ccc2[nH]cnc2c1 [Example 13, N-(1H-Benzimidazol-5-yl-methyl)-N′-(3-pyrrolidin-1-yl-propyl)-guanidine tris-hydrochloride]
- Ki (Histamine H3 receptor [1]): 20 nM
- Kb (Histamine H3 receptor [2]): 501 nM

SMILES: COC(=O)c1ccc(CNC(N)=NCCCN2CCCC2)cc1 [Example 14, 4-(N′-(3-Pyrrolidin-1-yl-propyl)-guanidinomethyl)-benzoic acid methyl ester bis-hydrochloride]
- Ki (Histamine H3 receptor [1]): 25.1 nM
- Kb (Histamine H3 receptor [2]): 1000 nM

SMILES: N=C(N)N(CCCCN1CCCC1)Cc1ccc(Cl)cc1 [Example 68, N-(4-Chlorobenzyl)-N-(4-pyrrolidin-1-yl-butyl)-guanidine bis-hydrochloride]
- Kb (Histamine H3 receptor [2]): 50.1 nM

SMILES: N=C(N)N(CCCCCCCN1CCCC1)Cc1ccc(Cl)cc1 [Example 71, N-(4-Chlorobenzyl)-N-(7-pyrrolidin-1-yl-heptyl)-guanidine bis-hydrochloride]
- Kb (Histamine H3 receptor [2]): 3.98 nM

SMILES: N=C(N)N(CCCCCCCCN1CCCC1)Cc1ccc(Cl)cc1 [Example 79, N-(4-Chlorobenzyl)-N-(8-pyrrolidin-1-yl-octyl)-guanidine bis-hydrochloride]
- Kb (Histamine H3 receptor [2]): 7.94 nM

SMILES: N=C(N)N(CCCCCCCCCN1CCCC1)Cc1ccc(Cl)cc1 [Example 80, N-(4-Chlorobenzyl)-N-(9-pyrrolidin-1-yl-nonyl)-guanidine bis-hydrochloride]
- Kb (Histamine H3 receptor [2]): 10 nM

SMILES: COC(=O)CN(CCC[C@@H]1CCCN1C)S(=O)(=O)NCc1ccc(Cl)cc1 [Example 123, N-(4-Chlorobenyl)-N′-(methoxycarbonylmethyl)-N′-(3-(1-methyl-pyrrolidin-2S-yl)propyl)-sulfamide]
- Ki (Histamine H3 receptor [1]): 251 nM

SMILES: CN1CCC[C@H]1CCCN(CCO)S(=O)(=O)NCc1ccc(Cl)cc1 [Example 124, N-(4-Chlorobenzyl)-N′-(2-hydroxyethyl)-N′-(3-(1-methyl-pyrrolidin-2S-yl)propyl)-sulfamide]
- Ki (Histamine H3 receptor [1]): 1260 nM

SMILES: CN1CCC[C@H]1CCCN(CCCN)S(=O)(=O)NCc1ccc(Cl)cc1 [Example 126, N-(4-Chlorobenzyl)-N′-(3-amino-propyl)-N′-(3-(1-methyl-pyrrolidin-2S-yl)propyl)-sulfamide]
- Ki (Histamine H3 receptor [1]): 1000 nM

SMILES: CN(C)C(=O)CN(CCC[C@@H]1CCCN1C)S(=O)(=O)NCc1ccc(Cl)cc1 [Example 128, N-(4-Chlorobenzyl)-N′-(dimethylamidomethyl)-N′-(3-(1-methyl-pyrrolidin-2S-yl)propyl)-sulfamide]
- Ki (Histamine H3 receptor [1]): 3160 nM

SMILES: CN1CCC[C@H]1CCCN(CC(=O)NCc1ccc(Cl)cc1)S(=O)(=O)NCc1ccc(Cl)cc1 [Example 129, N-(4-Chlorobenzyl)-N′-(4-chlorobenzylamidomethyl)-N′-(3-(1-methyl-pyrrolidin-2S-yl)propyl)-sulfamide]
- Ki (Histamine H3 receptor [1]): 794 nM

SMILES: CN1CCC[C@H]1CCCN(CC(=O)OCc1ccccc1)S(=O)(=O)NCc1ccc(Cl)cc1 [Example 130, N-(4-Chlorobenzyl)-N′-(benyloxycarbonylmethyl)-N′-(3-(1-methyl-pyrrolidin-2S-yl)propyl)-sulfamide]
- Ki (Histamine H3 receptor [1]): 5010 nM

SMILES: O=S(=O)(NCCN1CCCC1)NCc1ccc(Cl)cc1 [Example 134, N-(4-Chlorobenzyl)-N′-(2-pyrrolidin-1-yl-ethyl)-sulfamide]
- Ki (Histamine H3 receptor [1]): 1000 nM

SMILES: CN1CCCC1CCCCS(=O)(=O)NCC1CCCCC1 (stereo not drawn) [Example 137, N-Cyclohexyl-methyl-4-(1-methyl-pyrrolidin-2S-yl)-butanesulfonamide]
- Ki (Histamine H3 receptor [1]): 2510 nM

SMILES: CN1CCCC1CCCCS(=O)(=O)NCC12CC3CC(CC(C3)C1)C2 (stereo not drawn) [Example 138, N-Adamantan-1-yl-methyl-4-(1-methyl-pyrrolidin-2S-yl)-butanesulfonamide]
- Ki (Histamine H3 receptor [1]): 1260 nM

SMILES: CC(C)CN1CCC[C@H]1CCCNS(=O)(=O)Cc1ccc(Cl)cc1 [Example 143]
- Ki (Histamine H3 receptor [1]): 794 nM
